Assay results from ChEMBL document CHEMBL1143452, “Synthesis and biological evaluation of 1-amino-1,1-bisphosphonates derived from fatty acids against Trypanosoma cruzi targeting farnesyl pyrophosphate synthase” (Bioorg Med Chem Lett, 2005).

Key:
[1] = test system: Trypanosoma cruzi; assay: Inhibitory concentration against growth of Trypanosoma cruzi amastigotes; format: functional, organism-based
[2] = test system: Trypanosoma cruzi; assay: Inhibitory concentration against growth of Trypanosoma cruzi epimastigotes; format: functional, organism-based

Structure (SMILES) | IC50 [1] | IC50 [2]
CCCC(N)(P(=O)(O)O)P(=O)(O)O | > 85 µM | > 100 µM
CCCCC(N)(P(=O)(O)O)P(=O)(O)O | > 85 µM | > 100 µM
CCC(N)(P(=O)(O)O)P(=O)(O)O | > 85 µM | > 100 µM
CCCCCC(N)(P(=O)(O)O)P(=O)(O)O | 77 µM | > 100 µM
CC(N)(P(=O)(O)O)P(=O)(O)O | > 100 µM | > 100 µM
CCCCCCC(N)(P(=O)(O)O)P(=O)(O)O | 72 µM | > 100 µM
